Results reported in US4607031A, “Novel ethyl benzylphosphinate derivatives, process for production thereof, and their use as calcium antagonist” (priority 1984, dated 1986).

Molecular target: T1, taenia preparation isolated from caecum (Cavia porcellus)
T1 construct: The taenia preparation in a length of about 2 cm was isolated from caecum; from tissue; host or cells: guinea pig taenia caeci (isolated smooth muscle strip)
Test: Calcium antagonistic activity (isolated taenia preparation from caecum, Ca2+ concentration-response in K+-rich solution)
Type: cell-based
Conditions: guinea pig taenia caeci; Ca2+-free, K+-rich Ringer-Lock solution, 30±1° C.; CaCl2 cumulatively added; read-out: Calcium antagonistic activity (pA2 values, mean ± standard error) (converted)
Procedure: Male guinea pigs, weighing 405-500 g, were stunned and bled. The taenia preparation in a length of about 2 cm was isolated from caecum and suspended in an organ bath filled with Ca^2+ -free Ringer-Lock solution (composition, mM: NaCl 154, KCl 5.6, NaHCO3 2.3, glucose 5.5). The bathing solution was maintained at 30±1° C. and bubbled with air. The contractile response was recorded using an isotonic transducer (TD-112S made by Nihon Kohden Co., Ltd.) under a load of 0.5 g.
After sufficient incubation to remove Ca^2+, the bathing solution was replaced by Ca^2+ -free, K^+ -rich Ringer-Lock solution (composition, mM: NaCl 59.6, KCl 100, NaHCO3 2.3, glucose 5.5). An aqueous solution of CaCl2 ([…]) was cumulatively added to the bathing solution every 10 minutes, and a concentration-response curve for Ca^2+ was obtained. After washing out Ca^2+ the same procedure as above was carried out in the presence of each of the test compounds, and the pA2 value of the calcium antagonistic activity was calculated from the difference between the concentration-response curves obtained in the absence and presence of the test compound.
Each of the test compounds was dissolved in 5% ethanol and added to the bathing solution (the final concentration of ethanol was 0.05%).

T1 sequence (O35505 whole entry): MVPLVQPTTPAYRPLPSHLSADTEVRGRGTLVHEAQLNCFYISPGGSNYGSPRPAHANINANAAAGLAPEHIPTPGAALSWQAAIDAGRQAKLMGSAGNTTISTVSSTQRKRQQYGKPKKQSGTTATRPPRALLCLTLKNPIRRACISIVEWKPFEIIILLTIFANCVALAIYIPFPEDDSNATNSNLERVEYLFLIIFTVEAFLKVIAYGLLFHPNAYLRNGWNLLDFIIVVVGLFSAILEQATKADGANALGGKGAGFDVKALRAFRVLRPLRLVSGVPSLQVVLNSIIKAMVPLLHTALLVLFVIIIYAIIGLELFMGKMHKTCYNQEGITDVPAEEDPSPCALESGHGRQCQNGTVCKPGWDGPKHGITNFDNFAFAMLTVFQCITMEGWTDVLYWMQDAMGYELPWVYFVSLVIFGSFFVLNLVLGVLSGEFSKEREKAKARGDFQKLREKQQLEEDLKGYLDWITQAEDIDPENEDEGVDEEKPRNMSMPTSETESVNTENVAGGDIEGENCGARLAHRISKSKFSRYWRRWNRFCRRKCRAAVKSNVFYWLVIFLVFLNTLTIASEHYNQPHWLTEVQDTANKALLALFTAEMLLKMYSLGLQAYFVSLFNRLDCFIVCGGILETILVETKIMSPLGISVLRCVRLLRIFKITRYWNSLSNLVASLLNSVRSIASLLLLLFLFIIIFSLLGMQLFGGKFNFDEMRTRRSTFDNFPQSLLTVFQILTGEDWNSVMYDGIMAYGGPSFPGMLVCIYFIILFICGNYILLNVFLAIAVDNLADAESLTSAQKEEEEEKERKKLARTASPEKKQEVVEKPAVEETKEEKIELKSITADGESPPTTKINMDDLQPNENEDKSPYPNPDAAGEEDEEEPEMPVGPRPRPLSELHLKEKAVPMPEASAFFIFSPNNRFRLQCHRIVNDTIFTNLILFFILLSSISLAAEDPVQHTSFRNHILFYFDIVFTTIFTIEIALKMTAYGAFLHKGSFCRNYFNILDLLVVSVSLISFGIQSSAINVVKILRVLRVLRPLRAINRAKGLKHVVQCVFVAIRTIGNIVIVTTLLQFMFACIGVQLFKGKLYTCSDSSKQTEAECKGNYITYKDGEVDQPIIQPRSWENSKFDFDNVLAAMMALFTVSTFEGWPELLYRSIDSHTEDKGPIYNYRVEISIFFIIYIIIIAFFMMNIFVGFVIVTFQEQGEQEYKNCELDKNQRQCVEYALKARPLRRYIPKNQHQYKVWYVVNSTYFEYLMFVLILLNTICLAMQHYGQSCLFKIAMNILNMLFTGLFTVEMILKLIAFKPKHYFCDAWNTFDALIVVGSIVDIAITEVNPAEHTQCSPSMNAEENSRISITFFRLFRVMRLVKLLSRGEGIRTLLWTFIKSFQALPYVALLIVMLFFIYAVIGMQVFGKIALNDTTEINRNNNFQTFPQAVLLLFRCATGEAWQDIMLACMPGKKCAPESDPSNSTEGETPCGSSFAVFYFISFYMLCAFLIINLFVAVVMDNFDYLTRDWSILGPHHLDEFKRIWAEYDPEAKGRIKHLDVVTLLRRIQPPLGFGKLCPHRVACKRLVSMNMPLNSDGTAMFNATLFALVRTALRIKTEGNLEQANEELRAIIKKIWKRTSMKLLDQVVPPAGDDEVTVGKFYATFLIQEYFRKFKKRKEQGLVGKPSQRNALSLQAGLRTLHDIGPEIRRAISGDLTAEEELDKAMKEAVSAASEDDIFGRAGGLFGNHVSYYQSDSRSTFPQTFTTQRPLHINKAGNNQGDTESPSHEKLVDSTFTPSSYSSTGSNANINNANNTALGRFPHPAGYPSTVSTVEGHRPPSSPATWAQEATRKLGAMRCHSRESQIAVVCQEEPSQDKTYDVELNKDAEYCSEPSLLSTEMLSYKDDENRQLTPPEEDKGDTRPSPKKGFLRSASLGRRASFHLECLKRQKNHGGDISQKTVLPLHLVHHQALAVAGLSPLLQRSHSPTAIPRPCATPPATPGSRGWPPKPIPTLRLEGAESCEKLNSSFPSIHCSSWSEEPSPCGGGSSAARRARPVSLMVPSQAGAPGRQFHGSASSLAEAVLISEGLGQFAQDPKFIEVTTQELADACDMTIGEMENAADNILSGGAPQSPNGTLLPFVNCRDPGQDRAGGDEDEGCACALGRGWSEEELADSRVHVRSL

SMILES | Kb [nM]
CCOP(=O)(Cc1ccc(-c2nc3ccccc3s2)cc1)N1CCCC1=O (centres unmarked) [Compound 100, Ethyl 4-(benzothiazol-2-yl)benzyl-(2-oxopyrrolidino)phosphinate] | 29.5
CCOP(=O)(Cc1ccc(-c2nc3ccccc3s2)cc1)N1CCCCC1=O (centres unmarked) [Compound 101, Ethyl 4-(benzothiazol-2-yl)benzyl-(2-oxopiperidino)phosphinate] | 35.5
CCOP(=O)(Cc1ccc(-c2nc3ccccc3s2)cc1)N1CCCCCC1=O (centres unmarked) [Compound 102, Ethyl 4-(benzothiazol-2-yl)benzyl-(2-oxohomopiperidino)phosphinate] | 34.7
CCOP(=O)(Cc1ccc(-c2nc3cc(F)ccc3s2)cc1)N1CCCC1=O (centres unmarked) [Compound 103, Ethyl 4-(5-fluorobenzothiazol-2-yl)benzyl(2-oxopyrrolidino)phosphinate] | 18.6
CCOP(=O)(Cc1ccc(-c2nc3cc(F)ccc3s2)cc1)N1CCCCC1=O (centres unmarked) [Compound 104, Ethyl 4-(5-fluorobenzothiazol-2-yl)benzyl(2-oxopiperidino)phosphinate] | 20.9
CCOP(=O)(Cc1ccc(-c2nc3cc(F)ccc3s2)cc1)N1CCCCCC1=O (centres unmarked) [Compound 105, Ethyl 4-(5-fluorobenzothiazol-2-yl)benzyl(2-oxohomopiperidino)phosphinate] | 18.6
CCOP(=O)(Cc1ccc(-c2nc3cc(F)ccc3s2)cc1)N1CCOC1=O (centres unmarked) [Compound 109, Ethyl 4-(5-fluorobenzothiazol-2-yl)benzyl(2-oxo-1,3-oxazolidino)phosphinate] | 20.4
CCOP(=O)(Cc1ccc(-c2nc3ccccc3s2)cc1)OCC [Compound A, diethyl 4-(benzothiazol-2-yl)benzylphosphonate, reference compound] | 61.7

System: Mongrel dogs
Test: Coronary vasodilating activity and hypotensive activity in anesthetized dogs
Type: in vivo, dog
Conditions: Canis lupus familiaris, iv, read-out: Mean systemic blood pressure lowering activity MBP-DD15
Procedure: Coronary vasodilating activity was examined by measuring the amount of coronary blood flow as an index. Mongrel dogs weighing 10 to 19 kg were anesthetized by intravenously injecting sodium pentobarbital (30 mg/kg) and thoracotomized at the 5th left intercostal space under artificial ventilation. After incision of the pericardiac membrane, a flow probe was placed at the circumflex banch of the left coronary artery and led to an electromagnetic flow meter (MFV-2100 made by Nihon Kohden Co., Ltd.). The systemic blood pressure of the animals was measured by a pressure transducer (MPU-0.5 made by Nihon Kohden Co., Ltd.) connected to the cannulated left femoral artery. The coronary blood flow and the systemic blood pressure were recorded on a polygraph (RM-85 made by Nihon Kohden Co., Ltd.). Each of the test compounds was dissolved in ethanol/saline solution (1/1, V/V) and injected into the femoral vein.
Each of the test compounds was administered in a dose of 0.03 to 0.3 mg/kg, and doses which increase the coronary blood flow by 75% (CBF-ID75) and decrease the mean systemic blood pressure by 15% (MDP-DD15) were calculated from the regression lines.

SMILES | ED15 [mg/kg]
CCOP(=O)(Cc1ccc(-c2nc3ccccc3s2)cc1)N1CCCC1=O (centres unmarked) [Compound 100, Ethyl 4-(benzothiazol-2-yl)benzyl-(2-oxopyrrolidino)phosphinate] | 0.0387
CCOP(=O)(Cc1ccc(-c2nc3ccccc3s2)cc1)N1CCCCC1=O (centres unmarked) [Compound 101, Ethyl 4-(benzothiazol-2-yl)benzyl-(2-oxopiperidino)phosphinate] | 0.0582
CCOP(=O)(Cc1ccc(-c2nc3ccccc3s2)cc1)N1CCCCCC1=O (centres unmarked) [Compound 102, Ethyl 4-(benzothiazol-2-yl)benzyl-(2-oxohomopiperidino)phosphinate] | 0.054
CCOP(=O)(Cc1ccc(-c2nc3cc(F)ccc3s2)cc1)N1CCCC1=O (centres unmarked) [Compound 103, Ethyl 4-(5-fluorobenzothiazol-2-yl)benzyl(2-oxopyrrolidino)phosphinate] | 0.0901
CCOP(=O)(Cc1ccc(-c2nc3cc(F)ccc3s2)cc1)N1CCCCC1=O (centres unmarked) [Compound 104, Ethyl 4-(5-fluorobenzothiazol-2-yl)benzyl(2-oxopiperidino)phosphinate] | 0.0629
CCOP(=O)(Cc1ccc(-c2nc3cc(F)ccc3s2)cc1)N1CCCCCC1=O (centres unmarked) [Compound 105, Ethyl 4-(5-fluorobenzothiazol-2-yl)benzyl(2-oxohomopiperidino)phosphinate] | 0.0712
CCOP(=O)(Cc1ccc(-c2nc3cc(F)ccc3s2)cc1)N1CCOC1=O (centres unmarked) [Compound 109, Ethyl 4-(5-fluorobenzothiazol-2-yl)benzyl(2-oxo-1,3-oxazolidino)phosphinate] | 0.0748
CCOP(=O)(Cc1ccc(-c2nc3ccccc3s2)cc1)OCC [Compound A, diethyl 4-(benzothiazol-2-yl)benzylphosphonate, reference compound] | 0.158

Same assay, conditions: Canis lupus familiaris, iv; dose which increases coronary blood flow by 75%; anesthetized mongrel dogs; injected into femoral vein, 0.03 to 0.3 mg/kg; read-out: Coronary blood flow increasing activity CBF-ID75

SMILES | ED75 [mg/kg]
CCOP(=O)(Cc1ccc(-c2nc3ccccc3s2)cc1)N1CCCC1=O (centres unmarked) [Compound 100, Ethyl 4-(benzothiazol-2-yl)benzyl-(2-oxopyrrolidino)phosphinate] | 0.044
CCOP(=O)(Cc1ccc(-c2nc3ccccc3s2)cc1)N1CCCCC1=O (centres unmarked) [Compound 101, Ethyl 4-(benzothiazol-2-yl)benzyl-(2-oxopiperidino)phosphinate] | 0.06
CCOP(=O)(Cc1ccc(-c2nc3ccccc3s2)cc1)N1CCCCCC1=O (centres unmarked) [Compound 102, Ethyl 4-(benzothiazol-2-yl)benzyl-(2-oxohomopiperidino)phosphinate] | 0.0573
CCOP(=O)(Cc1ccc(-c2nc3cc(F)ccc3s2)cc1)N1CCCC1=O (centres unmarked) [Compound 103, Ethyl 4-(5-fluorobenzothiazol-2-yl)benzyl(2-oxopyrrolidino)phosphinate] | 0.0644
CCOP(=O)(Cc1ccc(-c2nc3cc(F)ccc3s2)cc1)N1CCCCC1=O (centres unmarked) [Compound 104, Ethyl 4-(5-fluorobenzothiazol-2-yl)benzyl(2-oxopiperidino)phosphinate] | 0.0647
CCOP(=O)(Cc1ccc(-c2nc3cc(F)ccc3s2)cc1)N1CCCCCC1=O (centres unmarked) [Compound 105, Ethyl 4-(5-fluorobenzothiazol-2-yl)benzyl(2-oxohomopiperidino)phosphinate] | 0.0583
CCOP(=O)(Cc1ccc(-c2nc3cc(F)ccc3s2)cc1)N1CCOC1=O (centres unmarked) [Compound 109, Ethyl 4-(5-fluorobenzothiazol-2-yl)benzyl(2-oxo-1,3-oxazolidino)phosphinate] | 0.0615
CCOP(=O)(Cc1ccc(-c2nc3ccccc3s2)cc1)OCC [Compound A, diethyl 4-(benzothiazol-2-yl)benzylphosphonate, reference compound] | 0.116

System: not listed separately
Test: Acute toxicity, oral
Conditions: mouse, in vivo, ddY male mice, suspended in 0.5% carboxymethyl cellulose, 7 days

SMILES | LD50 at 168 h [mg/kg]
CCOP(=O)(Cc1ccc(-c2nc3ccccc3s2)cc1)N1CCCC1=O (centres unmarked) [Compound 100, Ethyl 4-(benzothiazol-2-yl)benzyl-(2-oxopyrrolidino)phosphinate] | > 1000
CCOP(=O)(Cc1ccc(-c2nc3ccccc3s2)cc1)N1CCCCC1=O (centres unmarked) [Compound 101, Ethyl 4-(benzothiazol-2-yl)benzyl-(2-oxopiperidino)phosphinate] | > 1000
CCOP(=O)(Cc1ccc(-c2nc3ccccc3s2)cc1)N1CCCCCC1=O (centres unmarked) [Compound 102, Ethyl 4-(benzothiazol-2-yl)benzyl-(2-oxohomopiperidino)phosphinate] | > 1000
CCOP(=O)(Cc1ccc(-c2nc3cc(F)ccc3s2)cc1)N1CCCC1=O (centres unmarked) [Compound 103, Ethyl 4-(5-fluorobenzothiazol-2-yl)benzyl(2-oxopyrrolidino)phosphinate] | > 1000
CCOP(=O)(Cc1ccc(-c2nc3cc(F)ccc3s2)cc1)N1CCCCC1=O (centres unmarked) [Compound 104, Ethyl 4-(5-fluorobenzothiazol-2-yl)benzyl(2-oxopiperidino)phosphinate] | > 1000
CCOP(=O)(Cc1ccc(-c2nc3cc(F)ccc3s2)cc1)N1CCCCCC1=O (centres unmarked) [Compound 105, Ethyl 4-(5-fluorobenzothiazol-2-yl)benzyl(2-oxohomopiperidino)phosphinate] | > 1000
CCOP(=O)(Cc1ccc(-c2nc3cc(F)ccc3s2)cc1)N1CCOC1=O (centres unmarked) [Compound 109, Ethyl 4-(5-fluorobenzothiazol-2-yl)benzyl(2-oxo-1,3-oxazolidino)phosphinate] | > 1000
CCOP(=O)(Cc1ccc(-c2nc3ccccc3s2)cc1)OCC [Compound A, diethyl 4-(benzothiazol-2-yl)benzylphosphonate, reference compound] | > 1000
